Measured values from ChEMBL document CHEMBL4308871, “Design, synthesis and in vitro evaluation of stilbene derivatives as novel LSD1 inhibitors for AML therapy” (Bioorg Med Chem, 2018).

Legend:
[1] = target: T1, Amine oxidase [flavin-containing] B (Homo sapiens, UniProt P27338)
T1 sequence (P27338 whole entry): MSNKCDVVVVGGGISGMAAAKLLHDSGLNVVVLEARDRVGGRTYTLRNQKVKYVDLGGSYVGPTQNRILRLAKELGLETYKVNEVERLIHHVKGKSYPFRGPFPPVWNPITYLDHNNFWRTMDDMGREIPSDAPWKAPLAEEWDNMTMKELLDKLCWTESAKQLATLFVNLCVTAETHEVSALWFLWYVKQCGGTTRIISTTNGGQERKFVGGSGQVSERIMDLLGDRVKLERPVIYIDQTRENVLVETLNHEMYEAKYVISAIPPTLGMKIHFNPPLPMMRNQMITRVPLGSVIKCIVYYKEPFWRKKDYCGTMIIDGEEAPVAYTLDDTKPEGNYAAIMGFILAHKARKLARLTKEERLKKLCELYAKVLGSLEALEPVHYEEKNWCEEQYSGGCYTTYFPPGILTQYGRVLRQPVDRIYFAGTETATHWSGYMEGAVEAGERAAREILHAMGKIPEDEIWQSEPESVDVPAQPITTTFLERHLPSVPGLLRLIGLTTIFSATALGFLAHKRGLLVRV

[2] = target: T2, Amine oxidase [flavin-containing] A (Homo sapiens, UniProt P21397); assay: Inhibition of MAO-A (unknown origin) using (4S)-4,5-dihydro-2-(6-hydroxybenzothiazolyl)-4-thiazolecarboxylic acid as substrate by MAO-Glo assay
T2 sequence (P21397 whole entry): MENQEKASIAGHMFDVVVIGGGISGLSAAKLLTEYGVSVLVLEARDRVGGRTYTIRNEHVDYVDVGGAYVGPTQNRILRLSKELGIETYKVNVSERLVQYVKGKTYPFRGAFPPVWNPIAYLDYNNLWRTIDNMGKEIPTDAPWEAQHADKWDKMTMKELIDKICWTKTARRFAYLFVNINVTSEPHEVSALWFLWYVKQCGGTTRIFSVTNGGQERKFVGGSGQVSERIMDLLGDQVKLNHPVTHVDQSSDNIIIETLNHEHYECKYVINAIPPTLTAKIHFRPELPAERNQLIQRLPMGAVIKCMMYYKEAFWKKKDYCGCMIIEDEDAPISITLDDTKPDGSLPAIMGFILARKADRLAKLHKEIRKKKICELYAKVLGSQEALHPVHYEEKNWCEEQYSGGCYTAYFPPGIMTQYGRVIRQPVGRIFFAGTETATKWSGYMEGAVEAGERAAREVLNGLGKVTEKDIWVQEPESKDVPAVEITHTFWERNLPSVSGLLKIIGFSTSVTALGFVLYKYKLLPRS

THP-1 [3] = assay: cells; conditions: Homo sapiens, THP-1, 192 h
MOLM-13 = assay: cells; conditions: Homo sapiens, MOLM-13, 192 h
MV4-11 = assay: cells; conditions: Homo sapiens, MV4-11, 192 h
THP-1 [4] = assay: Inhibition of colony formation in human THP1 cells after 14 days by DAPI staining-based microscopic analysis; type: functional, cell-based
THP-1 [5] = assay: Induction of morphological changes in human THP1 cells assessed as blurred cell membrane boundaries after 3 days by H and E staining based assay; type: functional
THP-1 [6] = assay: Induction of morphological changes in human THP1 cells assessed as chromatin shrinkage after 3 days by H and E staining based assay; type: functional, cell-based
[7] = target: Lysine-specific histone demethylase 1A (Homo sapiens, UniProt O60341); assay: Inhibition of full length LSD1 (unknown origin) expressed in Escherichia coli BL21 (DE) using H3K4me2 peptide as substrate after 30 mins by fluorescence assay

IC50 [1]	IC50 [2]	IC50 (THP-1 [3])	IC50 (MOLM-13)	IC50 (MV4-11)	IC50 [7]	SMILES	inhibition (THP-1 [4])	Activity (THP-1 [5])	Activity (THP-1 [6])
> 50 µM	> 50 µM	13.7 µM	9.05 µM	15.8 µM	–	N/C(=N\O)c1cccc(/C=C/c2ccnc(-c3ccccc3O)c2)c1	–	–	–
> 50 µM	> 50 µM	10.5 µM	12.5 µM	10.9 µM	0.301 µM	Nc1cccc(/C=C/c2ccc(O)c(-c3ccccn3)c2)c1	–	–	–

Second part, the compound before the results:

SMILES	IC50 [1]	IC50 [2]	IC50 (THP-1 [3])	IC50 (MOLM-13)	IC50 (MV4-11)	IC50 [7]	inhibition (THP-1 [4])	Activity (THP-1 [5])	Activity (THP-1 [6])
N[C@H]1CC[C@H](N[C@@H]2C[C@H]2c2ccccc2)CC1	–	–	> 20 µM	–	–	–	–	–	–
N/C(=N\O)c1cccc(/C=C/c2ccnc(-c3cc(F)ccc3O)c2)c1	> 50 µM	> 50 µM	5.76 µM	8.34 µM	7.49 µM	–	Dose-dependent effect	Dose-dependent effect	Dose-dependent effect
N/C(=N\O)c1cccc(/C=C/c2ccc(O)c(-c3ccccn3)c2)c1	> 50 µM	> 50 µM	7.89 µM	22.6 µM	4.71 µM	–	–	–	–
